Test results reported in publication PMC11679793, “Structure-Activity Relationship Study of Majusculamide D: Overcoming Metabolic Instability and Severe Toxicity with a Fluoro Analogue” (Marine Drugs, 2024).

Key:
PANC-1 cells = experiment: MTT cell activity assay (inhibitory activity against PANC-1 cells); type: cell-based; conditions: Homo sapiens, PANC-1, 72 h, read-out: IC50 (nM), inhibitory activity against PANC-1 cells (Table 1), PANC-1 cells, 72 h incubation, mean ± SD, n = 3
Experimental: A total of 3000 PANC-1 cells were resuspended in 200 μL of culture medium and seeded into 96-well plates. After 24 h, the cells were treated with the compound and incubated for an additional 72 h. Following the incubation, 20 μL of 5 mg/mL MTT solution (Solarbio, China) was added to each well in the dark, and the cells were incubated for another 4 h. After incubation, the culture medium was discarded, and the wells were washed with PBS to remove any residual medium. Then, 200 μL of DMSO was added to each well to fully dissolve the formazan crystals, and the solution was mixed thoroughly. The absorbance was measured at 492 nm/570 nm, and the data were analyzed using GraphPad Prism.

[1] = Stability in mouse plasma assay; type: in vitro ADME; conditions: 1 μM, 37 °C; for stability in mouse plasma compared to 1a (in words): 0-24 h
Experimental: Thaw plasma at room temperature and vortex for 3–5 s. Centrifuge at 3000 rpm at 10 °C for 10 min, and carefully transfer the supernatant to a new Eppendorf tube. Preincubate the plasma at 37 °C for 10 min. Prepare a series of test substances by adding 3 μL of the compound (100 μM) to 297 μL of plasma to achieve a final concentration of 1 μM, ensuring that the DMSO concentration in plasma is 1%. Propantheline bromide is used as a positive control. Incubate the mixture at 37 °C, and at specified time points (0, 1, 2, 4, and 24 h), take 50 μL of the plasma sample. To terminate the reaction, add 250 μL of acetonitrile (containing an internal standard), vortex thoroughly, and centrifuge at 16,000 rcf (4 °C) for 10 min. Collect 130 μL of the supernatant and dilute with 70 μL of pure water for LC-MS/MS analysis. The concentration of the test substances in plasma samples was determined using LC-MS/MS. The stability of the test substance in plasma was evaluated by measuring the remaining percentage of the compound in the plasma over time.

PANC-1 xenograft tumor = conditions: for tumor inhibition rate (%): calculated from tumor weight, 1c, gemcitabine 20 mg/kg i.v.
Experimental: Furthermore, a xenografted murine subcutaneous tumor model was employed to evaluate the effects of majusculamide D and the optimized analogues 1c and 1n (Figure 1B). PANC1-bearing BALB/c nude mice were separated randomly, with a total of six mice in each group. Gemcitabine was chosen as the positive drug; the mice were then administered intravenous doses of 1c (5 mg/kg), 1n (5 mg/kg), 1a (5 mg/kg), and gemcitabine (20 mg/kg) every other day for 24 days.
A total of 4 × 10^6 PANC-1 cells suspended in 100 μL PBS were subcutaneously injected into the right shoulder region of BALB/c nude mice. When the tumor volume reached approximately 200 mm^3, the mice were euthanized, and the tumor tissues were harvested and designated as F1 generation. Tumor tissues were then cut into small cubes measuring approximately 3 × 3 × 3 mm, which were implanted into new BALB/c mice to propagate the tumors. This procedure was repeated to obtain the F2 generation of tumors. Finally, mice bearing F3 generation transplant tumors were used for drug treatment experiments. When the tumor volume reached approximately 80–100 mm^3, the mice were randomly divided into five groups (n = 6): control group, 5 mg/kg compound 1a group, 5 mg/kg compound 1c group, 5 mg/kg compound 1n group, and 20 mg/kg gemcitabine group. The compounds 1a, 1c, and 1n were dissolved in DMSO and then diluted with 0.9% physiological saline to achieve a final concentration of 0.5 mg/mL as the dosing concentration. Gemcitabine was dissolved directly in 0.9% saline to achieve a final concentration of 2 mg/mL as the dosing concentration. The compounds were administered intravenously every two days, alternating between the left and right tail veins to minimize vein damage. Injections were performed using ultra-fine syringes (30G needles) to reduce stress and ensure consistent delivery. The body weight and tumor volume of the mice were measured every four days. On day 24, the mice were euthanized, and the tumor weights were recorded. Tumor volume (V) was calculated using the formula: V = (ab^2)/2, with “a” representing the long diameter of the tumor and “b” representing the short diameter of the tumor. […] Tumor weight was used to calculate the tumor inhibition rate (Figure 1G).

[2] = Serum biochemical analysis and H&E histology of liver and kidney; type: in vivo, mice; conditions: 5 mg/kg every other day, 14 days
Experimental: In the biochemical and histological assays, 1n (5 mg/kg) and 1a (5 mg/kg) were administered to mice every other day, with the control group receiving an equivalent dose of saline. Following 14 days, mouse serum was collected for biochemical analysis, and organs were fixed for histological examination. […] In comparison, the liver tissues of the 1n-treated and control groups were normal.
Mice were euthanized, and liver and kidney tissues were collected and fixed in 10% neutral-buffered formalin for 48 h. The fixed tissues were processed for paraffin embedding, including dehydration in a graded ethanol series, clearing with xylene, and infiltration with molten paraffin wax. Paraffin blocks were sectioned into 4 μm slices using a rotary microtome, and the sections were mounted onto glass slides. The slides were dried at 60 °C for 4 h to ensure proper tissue adhesion. Following deparaffinization and rehydration, staining was performed according to the manufacturer’s instructions for the H&E staining kit (Solarbio, China). The sections were immersed in a hematoxylin solution for 3 min to stain the nuclei and then rinsed under running tap water for 1 minute to remove excess stain. Differentiation was achieved by briefly immersing the slides in a 1% hydrochloric acid-ethanol solution, followed by neutralization in 0.6% ammonia water until the nuclei appeared blue. Eosin staining was applied for 30 s to stain cytoplasmic and extracellular components, imparting a pink coloration. The slides were rinsed under running tap water for 30 s to remove excess eosin. Finally, the sections were dehydrated through a graded ethanol series, cleared with xylene, and coverslipped with a neutral resin mounting medium to preserve the stained tissues for microscopic examination.

Row | SMILES | IC50 (PANC-1 cells) [nM] | stability in mouse plasma compared to 1a (in words) [1] | tumor inhibition rate (%) (PANC-1 xenograft tumor; day 24, 1a, 1n 5 mg/kg) | remaining percentage in mouse plasma after 24 h ([1]; 24 h incubation) [%] | impact on mouse body weight gain (PANC-1 xenograft tumor; 5 mg/kg i.v. every other day, 24 days) | mice dead in treated group (PANC-1 xenograft tumor; 5 mg/kg i.v., xenografted mouse model, six mice per group) | tumor weight (PANC-1 xenograft tumor; day 24, i.v. every other day, 1a, 1n 5 mg/kg, gemcitabine 20 mg/kg, mean ± SD) [g] | tumor volume (PANC-1 xenograft tumor; i.v. every other day for 24 days, 1a, 1n 5 mg/kg, gemcitabine 20 mg/kg, mean ± SD, n = 6) [mm^3] | kidney tissue H&E histology [2] | liver tissue H&E histology [2] | serum ALT and AST levels compared to the control group ([2]; n = 3) | remaining percentage in mouse plasma after 2 h ([1]; 2 h incubation) [%]
1 | CCCCC(C)CC(C)C(=O)N(C)C(Cc1ccc(OC)cc1)C(=O)NC(C(=O)N(C)C(C(=O)N1CC(O)CC1C(=O)N1C(=O)C=CC1C)C(C)C)C(C)OC(F)(F)F (stereo not drawn) [Compound 1c] | 2.07 ± 0.67 | significantly superior stability compared to 1a | 40.4 | – | – | – | – | – | – | – | – | –
2 | CCCCCC[C@@H](C)C(=O)N(C)[C@@H](Cc1ccc(F)cc1)C(=O)N[C@H](C(=O)N(C)[C@H](C(=O)N1C[C@@H](O)C[C@H]1C(=O)N1C(=O)C=C[C@@H]1C)C(C)C)[C@@H](C)OC(F)(F)F [Compound 1n] | 3.83 | significantly superior stability compared to 1a | 51.5 | > 50 | lesser impact on weight gain compared to 1a | no mouse dead | 0.542 ± 0.156 | 553.3 ± 166.8 | no significant pathological differences | normal | no significant differences | –
3 | CC(C)[N+](C)(CCOC(=O)C1c2ccccc2Oc2ccccc21)C(C)C [bromopropyl, Propantheline bromide, reference compound] | – | – | – | – | – | – | – | – | – | – | – | 0.90
